Assay results taken from the METLIN SMRT retention time set (Domingo-Almenara et al. 2019).

test: gradient 5% acetonitrile 3 min, to 50% in 2 min, to 85% in 15 min, held 3 min, 100 µL/min; details: column: Zorbax Extend-C18 2.1 x 50 mm; eluents: water / acetonitrile, 0.1% formic acid
Method in brief: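 Pure standards were run in mixtures of ~100 molecules by HPLC coupled to a quadrupole time-of-flight mass spectrometer. The column was a Zorbax Extend-C18 (2.1 × 50 mm, 1.8 μm) at 100 μL/min, with water and acetonitrile each containing 0.1% formic acid, in positive and negative ionization mode. Dead and dwell volumes were 40 μL and 900 μL. Retention time was taken from computationally picked adduct peaks, each manually inspected, with data collected over 3 months.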

Structure (SMILES)	RP-LC retention time
O=c1n(Cc2ccc3c(c2)OCO3)nc2c(-c3nc(-c4ccccc4)no3)cccn12	944 s
COc1cc(NC(=O)Cn2nc3c4ccc(F)cc4ncn3c2=O)cc(OC)c1	715 s
Cc1ccsc1CN1CC(Oc2ccccc2C(=O)NC2CC2)C1	615 s
CC(C)n1cnnc1CC1CN(C(=O)Nc2ccc(Cl)cc2C(F)(F)F)C1	693 s
Cc1cccc(NC(=O)N2CCCC2c2cc(C)on2)c1 (stereo unspecified)	748 s
COc1cc(C(=O)Nc2nc3c(C)cc(Cl)cc3s2)cc(OC)c1OC	1120 s
Cn1c(C(=O)NC2CCCCCC2)cc2sc(Cl)cc21	1200 s
COc1ccc(-c2c(C)noc2NC(C)=O)cc1S(=O)(=O)N1CCN(c2ncccn2)CC1	700 s
Cc1nc2c(ccc3nc(NC(=O)NC4CCCC4)sc32)s1	785 s
COc1ccc(C)cc1NS(=O)(=O)c1cc2c3c(c1)CCC(=O)N3CCC2	973 s
COc1ccc2nc(C(=O)NCc3ccccc3Cl)cn2n1	830 s
CCN(CC)C(=O)CN(C)C(=O)c1cc2c(s1)N(CC1CC1)CCCC2	947 s
CCN1CCCn2cc(S(=O)(=O)Nc3ccccc3C)cc2C1=O	720 s
CC(NC(=O)c1cn(-c2cc(-c3nc(C(C)(C)C)no3)ccn2)cn1)c1ccccc1 (stereo unspecified)	1100 s
COc1ccc(Cl)cc1NC(=O)NCC(c1cccnc1)c1cn(C)c2ccccc12 (stereo unspecified)	785 s
Cc1cccc(NC(=O)Cn2ccc3ccn(C)c3c2=O)c1	772 s
CCc1ccccc1N(C)C(=O)Cn1ccc2c(=O)n(C)c(=O)n(C)c21	735 s
CCC(C)C(=O)N1CCCN(C2=NS(=O)(=O)C(c3ccc(C)cc3)=C2C)CC1 (stereo unspecified)	828 s
N#CC1(C(=O)NCCc2cccs2)CC1	708 s
CC(C)c1ccc(CNc2nc3ccncc3n(Cc3ccccc3)c2=O)cc1	842 s
COc1ccc(-c2noc(-c3ccc(NCCCN4CCC(N5CCCCC5)CC4)nn3)n2)cc1	603 s
O=P(Oc1ccccc1)(Oc1ccccc1)c1ccccc1	1070 s
COC(=O)c1sccc1S(=O)(=O)N1CCN(c2ccccn2)CC1	624 s

Second part, the compound after the results:

RP-LC retention time	Structure (SMILES)
1010 s	CCc1nc(-c2csc(S(=O)(=O)N3CCCC(C(=O)Nc4cccc(C#N)c4)C3)c2)no1 (stereo unspecified)
692 s	O=C(CCC(=O)N1CC2CCCN2c2ccccc21)N1CCN(Cc2ccc3c(c2)OCO3)CC1 (stereo unspecified)
816 s	CC1Oc2ccc(S(=O)(=O)N3CCC(C(=O)NCc4ccccc4Cl)CC3)cc2NC1=O (stereo unspecified)
784 s	Cc1c(Cl)cccc1NC(=O)C1CCCN(c2ccc(-n3cccn3)nn2)C1 (stereo unspecified)
829 s	CC(Cc1ccco1)NC(=O)c1ccc2ccnc(N3CCN(c4ccc(F)cc4)CC3)c2c1 (stereo unspecified)
808 s	COc1ccccc1N1CCN(c2ncc3c(n2)CCN(Cc2cccc(F)c2)C3)CC1
1150 s	Cc1ccc(-c2noc(Cn3c(=O)n(-c4ccc(Cl)cc4)c(=O)c4sccc43)n2)cc1C
651 s	O=C(Cn1nc2n(c1=O)CCCC2)Nc1ccc(F)cc1
690 s	O=C(O)c1cnc(-c2ccc(F)cc2)nc1-c1ccncc1
660 s	O=C1CCCN1CCCN1C(=O)[C@H]2CN(Cc3cccc(Cl)c3F)C[C@H]2C1=O
874 s	O=C(Nc1ccc(Cl)cc1)C1CCN(C(=O)c2ncn3c2COC(c2ccc(F)cc2)C3)CC1 (stereo unspecified)
828 s	Cc1ccc(CNC(=O)c2ccc3ccnc(N4CCN(c5ccc(F)cc5)CC4)c3c2)o1
857 s	O=C(NCc1ccc2c(c1)OCO2)C1CCCN(c2ccc(=O)n(-c3cccc(Cl)c3)n2)C1 (stereo unspecified)
